Results on 2 compounds are retold here after patent US8124778B2, “Tricyclic inhibitors of fatty acid amide hydrolase” (The Scripps Research Institute, priority 2007, dated 2012).

The assay addresses T1, purified recombinant rat FAAH (Rattus norvegicus, UniProt P97612).
T1 construct: The truncated rat FAAH (rFAAH) was expressed in E. coli and purified as described; made in house; host or cells: E. coli
T1 sequence (P97612 30-579 limits assumed): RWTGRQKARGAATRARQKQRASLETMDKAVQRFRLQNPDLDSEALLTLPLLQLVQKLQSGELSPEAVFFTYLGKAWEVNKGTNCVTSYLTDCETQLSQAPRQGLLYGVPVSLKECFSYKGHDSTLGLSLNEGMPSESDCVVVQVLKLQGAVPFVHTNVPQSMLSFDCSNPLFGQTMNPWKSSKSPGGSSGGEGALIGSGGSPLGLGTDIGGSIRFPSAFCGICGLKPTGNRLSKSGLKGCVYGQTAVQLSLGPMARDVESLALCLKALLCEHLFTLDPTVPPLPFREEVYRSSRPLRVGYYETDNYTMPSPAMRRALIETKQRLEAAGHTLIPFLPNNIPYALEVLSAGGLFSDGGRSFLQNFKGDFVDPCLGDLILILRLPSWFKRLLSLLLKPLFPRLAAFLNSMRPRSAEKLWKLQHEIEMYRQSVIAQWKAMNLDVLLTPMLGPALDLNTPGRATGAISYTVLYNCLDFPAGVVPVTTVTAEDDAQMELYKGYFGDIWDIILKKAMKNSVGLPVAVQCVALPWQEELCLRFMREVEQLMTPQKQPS
In words: FAAH inhibition enzyme assay (14C-oleamide hydrolysis, Dixon plot). It is filed as biochemical. Particulars: rat FAAH. Here is the method: Enzyme assays were performed at 20-23° C. with purified recombinant rat FAAH expressed in E. coli (Patricelli, M. P.; Lashuel, H. A.; et al. Biochemistry 1998, 37, 15177-15187) (unless indicated otherwise) or with solubilized COS-7 membrane extracts from cells transiently transfected with human FAAH cDNA (Giang, D. K.; Cravatt, B. F. Proc. Natl. Acad. Sci. U.S.A. 1997, 94, 2238-2242) (where specifically indicated) in a buffer of 125 mM Tris/1 mM EDTA/0.2% glycerol/0.02% Triton X-100/0.4 mM Hepes, pH 9.0 buffer (Patricelli, M. P.; Patterson, J. P.; et al. Bioorg. Med. Chem. Lett. 1998, 8, 613-618). The initial rates of hydrolysis (≦10-20% reaction) were monitored using enzyme concentrations at least three times below the measured Ki by following the breakdown of ^14C-oleamide and Ki's (standard deviations are provided in Supporting Information tables) were established as described (Dixon plot) (Boger, D. L.; Sato, H.; et al. Proc. Natl. Acad. Sci. U.S.A. 2000, 97, 5044-5049). Lineweaver-Burk analysis previously established reversible, competitive inhibition (Boger, D. L.; Miyauchi, H.; et al. J. Med. Chem. 2005, 48, 1849-1856).
FAAH Inhibition. ^14C-labeled oleamide was prepared from ^14C-labeled oleic acid as described (Cravatt, B. F.; et al. Science 1995, 268, 1506-1509). The truncated rat FAAH (rFAAH) was expressed in E. coli and purified as described (Patricelli, M. P.; Lashuel, H. A.; et al. Biochemistry 1998, 37, 15177-15187). The purified recombinant rFAAH was used in the inhibition assays unless otherwise indicated. The full-length human FAAH (hFAAH) was expressed in COS-7 cells as described (Giang, D. K.; Cravatt, B. F. Proc. Natl. Acad. Sci. U.S.A. 1997, 94, 2238-2242), and the lysate of hFAAH-transfected COS-7 cells was used in the inhibition assays where explicitly indicated.
The inhibition assays were performed as described (Cravatt, B. F.; et al. Science 1995, 268, 1506-1509). In brief, the enzyme reaction was initiated by mixing 1 nM of rFAAH (800, 500, or 200 pM rFAAH for inhibitors with Ki≦1-2 nM) with 10 μM of ^14C-labeled oleamide in 500 μL of reaction buffer (125 mM TrisCl, 1 mM EDTA, 0.2% glycerol, 0.02% Triton X-100, 0.4 mM Hepes, pH 9.0) at room temperature in the presence of three different concentrations of inhibitor. The enzyme reaction was terminated by transferring 20 μL of the reaction mixture to 500 μL of 0.1 N HCl at three different time points. The ^14C-labeled oleamide (substrate) and oleic acid (product) were extracted with EtOAc and analyzed by TLC as detailed (Cravatt, B. F.; et al. Science 1995, 268, 1506-1509). The Ki of the inhibitor was calculated using a Dixon plot as described (standard deviations are provided in the Supporting Information tables) (Boger, D. L.; Sato, H.; et al. Proc. Natl. Acad. Sci. U.S.A. 2000, 97, 5044-5049). Lineweaver-Burk analysis was performed as described confirming competitive, reversible inhibition (Boger, D. L.; Miyauchi, H.; et al. J. Med. Chem. 2005, 48, 1849-1856).

Regarding `O=C(CCCCCCc1cccnc1)c1ncc(-c2ccccn2)o1` [5f, 1-Oxo-1-[5-(2-pyridyl)oxazol-2-yl]-7-(3-pyridyl)heptane], the “FAAH inhibitory potency (in words)” value was “reductions in the Ki”.

With `O=C(CCCCCCc1ccccn1)c1ncc(-c2ccccn2)o1` [5e, 1-Oxo-1-[5-(2-pyridyl)oxazol-2-yl]-7-(2-pyridyl)heptane], the “FAAH inhibitory potency (in words)” value is listed as “reductions in the Ki”.
